The text below walks through data of patent US4749710A, “Immunosuppressive agents” (priority 1985, dated 1988).

In general, inhibition refers to the drop in the measured response relative to a control, in per cent.

Format in all cases: cell-based
For assay [1], the system named is IgM production by human lymphocytes. Nature of the assay: Inhibition of IgM production by human lymphocytes in vitro (SAC activation, ELISA). Conditions: 8 days, vehicle control 2.49 ± 0.17. The source says: (§1) General Test Description Humoral immunity comprises one of the two major arms of the immune system and generally is beneficial. However, a number of disease states are characterized by a hyperactive immune system responding to self tissue antigens. […] In these diseases it would be important to suppress the humoral immune system.
(§2) In the following studies we used established methods to examine the effect of Vitamin D derivatives on the in vitro production of immunoglobulin (Ig) by human peripheral blood leukocytes (PBL) following polyclonal activation. Immunoglobulin was induced from PBL by co-culturing the PBL with the polyclonal B cell activator Staphylococcus aureus strain Cowan I (SAC) for a period of 8 days. The quantity of Ig produced in the culture supernatants was determined by using an enzyme linked immunosorbent assay (ELISA). The effect of Vitamin D derivatives was determined by comparing the amount of antibody produced in cultures containing Vitamin D derivatives to those cultures containing an appropriate concentration of vehicle (ethanol).
(§3) Solutions of vitamin D derivatives. Stock solutions of vitamin D derivatives were prepared as described previously for the murine CTL experiments.
(§4) INDUCTION OF HUMAN IG SECRETION Human peripheral blood mononuclear leukocytes were prepared from one day old buffy coat preparations obtained from the American Red Cross (Lansing, MI). […] Twenty five ml of this preparation were overlayed onto 25 ml of Ficoll-Paque contained in a 50 ml polypropylene centrifuge tube. After centrifugation at 400×g at 15° C. for 40 min, the cells at the interface of the medium and Ficoll were removed and washed 3 times in 50 ml RPMI medium and centrifuged at 300×g for 10 minutes. After the final centrifugation,the cell pellet was suspended in RPMI medium containing 20% fetal bovine serum (FBS) and 80 μg/ml gentamicin. The number of viable cells was determined by trypan blue exclusion and were then suspended to 2.5×10^6 viable cells per ml in RPMI containing 20% FBS and gentamicin. Human PBL were induced to secrete Ig as follows. One hundred microliters of the PBL suspension and an additional 100 μl of a 1:20,000 (v/v) preparation of SAC suspended in RPMI containing 1% FBS were added to each well of a 96-well microtiter plate. Selected wells were also set up without the addition of SAC to serve as negative controls (spontaneous Ig secretion). Each well then received 20 μl of either the appropriate dilution of Vitamin D derivative in RPMI with 1% ethanol or RPMI with 1% ethanol (vehicle control). The vitamin D derivatives were tested at final concentrations of 10^-5, 10^-6, 10^-7, 10^-8, 10^-9, and 10^-10 M and in all cases the vehicle (ethanol) concentration was 0.1%. All treatments were performed in triplicate. […] The samples were then either assayed immediately or stored at -20° C. until assayed by the ELISA technique described below.
(§5) QUANTITATION OF SECRETED IG (ELISA ASSAY) ELISA plates were prepared for quantitating human IgG and IgM levels in culture supernatants as follows. Affinity purified sheep anti-human IgG and goat anti-human IgM (Cappel, Cochranville, PA) were diluted 1:250 and 1:400 respectively, in carbonate coating buffer (0.05M sodium bicarbonate, 0.05M sodium carbonate, 0.15M sodium chloride). One hundred and fifty microliters of the antibody preparation were added to each well of a 96 well ELISA plate (EIA, Costar). The plates were sealed and incubated overnight at 4° C. and on the following day were washed 3 times with distilled water. Each well then received 350 μl of Dulbecco's PBS containing 1 mg/ml bovine serum albumin (BSA) and 0.5 mg/ml sodium azide. The plates were allowed to incubate for 1 hour at 37° C. and then washed 3 times with Dulbecco's PBS containing 0.5% stock Tween 20 (PBS-Tween) followed by 2 washes with distilled water. The plates were air dried and stored desiccated under a vacuum at 4° C. until use.
A general note: In an ELISA, binding on a coated surface is turned into a signal by an enzyme label.

The subject of assay [2] is human cytotoxic T-lymphocyte responses. Nature of the assay: Inhibition of human CTL responses (mixed leukocyte-tumor cultures, HT-144 melanoma, ^51 Cr release). To be noted: donor I, 0.01% ethanol, effector to target 6:1; for inhibition at 1 µM / inhibition at 0.1 µM / inhibition at 10 µM: Homo sapiens, T-lymphocyte. How it is done: Human cells for the tests described below were taken from four donors designated I, II, III, and IV in the tables below.
Stock solutions of Vitamin D derivatives were prepared as they were prepared above in the murine tests.
Human cytotoxic T-lymphocytes were generated in mixed leukocyte-tumor cultures by known methods. Specifically, blood from normal volunteer donors was drawn into heparinized syringes, diluted 1:1 with calcium-magnesium free Hanks' balanced salt solution (Ca-Mg free HBSS), and layered over lymphocyte separation medium (Litton Bionetics, Kensington, MD). After centrifugation at 500xg for 20-30 min at room temperature, peripheral blood mononuclear cells were harvested from the interface. The peripheral blood mononuclear leukocytes were centrifuged and resuspended in Ca-Mg free HBSS and were subsequently separated from platelets by centrifugation at 500xg through a solution of 20% sucrose and 1% human AB serum in Ca-Mg free HBSS. The cells were washed once and finally resuspended in tissue culture medium. […] Cells to be used as stimulator cells in mixed leukocyte-tumor cultures were irradiated with 10,000 rads of gamma irradiation to preclude proliferation in culture. Mixed leukocyte-tumor cell cultures were established in 16 mm tissue culture wells at a final volume of 1.5 ml per well containing 2×10^6 peripheral blood mononuclear leukocytes and 5×10^4 irradiation-inactivated stimulator cells. In order to prevent the generation of nonspecific cytotoxic cells in these cultures, hydrocortisone sodium succinate was added to each culture at a final concentration of 1×10^-5 M. Mixed leukocyte-tumor cultures were incubated for 6 days in a humidified atmosphere of 5% CO2 in air.
Labelled target cells were washed free of unbound isotope by 3 serial washes in tissue culture medium and were finally resuspended at a concentration of 5×10^4 cells per ml.
Assays of human cytotoxic T-lymphocytes were done by known methods. Specifically, one-tenth ml aliquots of ^51 Cr-labelled target cell suspension were added to "half area" microtest plates and were incubated at 37° C. for 18 hours in a humidified atmosphere of 5% CO2 in air to permit the cells to adhere and spread on the floor of each well. Culture medium was then aspirated from each well and was replaced with 0.1 ml of tissue culture medium containing cells harvested from mixed leukocyte-tumor cultures which had been processed as described for murine mixed leukocute cultures, above. Control wells for measurement of spontaneous ^51 Cr release received medium without effector cells and wells for measurement of maximal releasable ^51 Cr received 0.1 ml of 2% sodium dodecyl sulfate in distilled water. After overnight incubation at 37° in a humidified atmosphere of 5% CO2 in air, 0.05 ml of cell-free supernatant was withdrawn from each well and the amount of released ^51 Cr was quantitated using a gamma spectrometer. The percentage of specific ^51 Cr release (CTL activity) and the percent inhibition of CTL activity were calculated with the same formulas used above for the murine CTL assay.
Tests conducted on human cytotoxic T-lymphocyte responses are reported as the mean±standard error of the mean from triplicate ^51 Cr release determinations on pooled cells from duplicate control or test cultures.

Assay [3] deals with IgG production by human lymphocytes. Nature of the assay: Inhibition of IgG production by human lymphocytes in vitro (SAC activation, ELISA). To be noted: 8 days, vehicle control 0.78 ± 0.09.
From the text: as §1, §2, §3, §4, §5

Like-named read-outs stand apart in the source and are kept apart here.

Turning to `C=C1/C(=C/C=C2\CCC[C@]3(C)[C@@H]([C@H](C)CCCC(C)(C)O)CC[C@@H]23)C[C@@H](O)C[C@@H]1O` [5,6-trans-1α,25-(OH)2 --D3, 1α,25-Dihydroxy-5,6-trans-cholecalciferol], the “IgM μg per culture (x ± S.E.M.)” value in assay [1] (1 × 10^-6 molar) is “undetectable”; in assay [1] (1 × 10^-7 molar), 0.04 ± 0.01 μg per culture; in assay [1] (1 × 10^-8 molar), 0.50 ± 0.21 μg per culture; in assay [1] (1 × 10^-9 molar) it was 2.36 ± 0.27 μg per culture; in assay [1] (1 × 10^-10 molar), 2.79 ± 0.18 μg per culture. For the same compound, the inhibition at 1 µM in assay [2] (read-out: Inhibition of CTL activity (%), Test 1, 1 × 10^-6 molar) worked out at 62%; in assay [2] (read-out: Inhibition of CTL activity (%), Test 2, 1 × 10^-6 molar) it was 74%. In addition, the inhibition at 0.1 µM in assay [2] (read-out: Inhibition of CTL activity (%), Test 1, 1 × 10^-7 molar) was found to be 62%. In assay [2] (read-out: Inhibition of CTL activity (%), Test 2, 1 × 10^-5 molar), the inhibition at 10 µM worked out at 60%. In addition, the “CTL activity (% specific ^51 Cr release)” value in assay [2] (Test 1, 1 × 10^-6 molar) is on record as 20 ± 2 % specific ^51 Cr release; in assay [2] (Test 1, 1 × 10^-7 molar) it was 20 ± 2 % specific ^51 Cr release; in assay [2] (Test 2, 1 × 10^-5 molar), 17 ± 3 % specific ^51 Cr release; in assay [2] (Test 2, 1 × 10^-6 molar), 11 ± 2 % specific ^51 Cr release. For the same compound, the “IgG μg per culture (x ± S.E.M.)” value in assay [3] (1 × 10^-6 molar) was “undetectable”; in assay [3] (1 × 10^-7 molar) it was 0.01 ± 0.001 μg per culture; in assay [3] (1 × 10^-8 molar), 0.21 ± 0.12 μg per culture; in assay [3] (1 × 10^-9 molar), 0.29 ± 0.05 μg per culture; in assay [3] (1 × 10^-10 molar), 0.55 ± 0.16 μg per culture.
In the case of `C=C1/C(=C\C=C2/CCC[C@]3(C)[C@@H]([C@H](C)CCC(F)(F)C(C)(C)O)CC[C@@H]23)C[C@@H](O)C[C@@H]1O` [24,24-(F)2 --1α,25-(OH)2 --D3, 1α,25-Dihydroxy-24,24-difluorocholecalciferol], the “IgM μg per culture (x ± S.E.M.)” value in assay [1] (1 × 10^-6 molar) is listed as “undetectable”; in assay [1] (1 × 10^-7 molar), “undetectable”; in assay [1] (1 × 10^-8 molar), “undetectable”; in assay [1] (1 × 10^-9 molar), “undetectable”; in assay [1] (1 × 10^-10 molar), 0.50 ± 0.12 μg per culture. In addition, the inhibition at 1 µM in assay [2] (Test 1, 1 × 10^-6 molar, read-out: Inhibition of CTL activity (%)) was 71%; in assay [2] (Test 2, 1 × 10^-6 molar, read-out: Inhibition of CTL activity (%)), 91%. In addition, the inhibition at 0.1 µM in assay [2] (Test 1, 1 × 10^-7 molar, read-out: Inhibition of CTL activity (%)) was 81%. For the same compound, the inhibition at 10 µM in assay [2] (Test 2, 1 × 10^-5 molar, read-out: Inhibition of CTL activity (%)) amounted to 83%. The “CTL activity (% specific ^51 Cr release)” value is listed as 15 ± 1 % specific ^51 Cr release in assay [2] (Test 1, 1 × 10^-6 molar); 10 ± 1 % specific ^51 Cr release in assay [2] (Test 1, 1 × 10^-7 molar); 9 ± 2 % specific ^51 Cr release in assay [2] (Test 2, 1 × 10^-5 molar); 5 ± 2 % specific ^51 Cr release in assay [2] (Test 2, 1 × 10^-6 molar). Further, the “IgG μg per culture (x ± S.E.M.)” value in assay [3] (1 × 10^-6 molar) is “undetectable”; in assay [3] (1 × 10^-7 molar), “undetectable”; in assay [3] (1 × 10^-8 molar), 0.01 ± 0.003 μg per culture; in assay [3] (1 × 10^-9 molar), 0.02 ± 0.02 μg per culture; in assay [3] (1 × 10^-10 molar) it was 0.11 ± 0.03 μg per culture.
